Columns and labels:
[1] = system: patients with gout and a history of major cardiovascular diseases; test: eGFR over time by average serum uric acid concentration, analysis of clinical trial data; type: in vivo, human; settings: febuxostat group
Experimental: (§1) In order to evaluate non-inferiority of febuxostat to allopurinol related to cardiovascular risk, a clinical trial was designed and proceeded.
(§2) A multicenter, randomized, double-blind non-inferiority trial was performed. The details of the clinical trial design have been published previously. An independent data and safety monitoring committee with access to unblinded data monitored the clinical trial. The statistical analysis for the data and the safety monitoring committee was performed by an independent statistical group (WebbWrites).
(§3) The patients were regarded as having a history of major cardiovascular diseases, if they had myocardial infarction, hospitalization for unstable angina, stroke, hospitalization for transient ischemic attack, peripheral vascular disease, or diabetes mellitus symptoms. All participants provided a prior informed consent form.
(§4) The patients were randomly assigned so that they received febuxostat or allopurinol administered once a day in a double-blind manner. The randomization was stratified according to the estimated creatinine clearance at baseline (patient group having an estimated creatinine clearance ≥60 ml per minute vs patient group having an estimated creatinine clearance ≥30 and <60 ml per minute).
(§5) The dose of allopurinol was modified according to a kidney function. The patients with the estimated creatinine clearance 60 ml or more per minute i) initially received allopurinol at a dose of 300 mg once a day, and the dose was increased in 100 mg increments monthly until the patient had the serum uric acid concentration of less than 6.0 mg per deciliter or the dosage of allopurinol was 600 mg once a day. The patient having the estimated creatinine clearance of 30 ml or more and less than 60 ml per minute initially received 200 mg of allopurinol, and then the dose was increased in 100 mg increments until the patient either had the serum uric acid concentration of less than 6.0 mg per deciliter or was receiving the allopurinol dose of 400 mg once daily.
(§6) The dose of febuxostat was not modified according to the kidney function. The patients who were randomly assigned to receive febuxostat initially received 40 mg once a daily, and continued to receive the same dosage if the serum uric acid concentration was less than 6.0 mg per deciliter after 2 weeks of the treatment. If the serum uric acid concentration was higher than 6.0 mg per deciliter at 2nd week visit, the dose of febuxostat was increased to 80 mg once daily for the remainder of the trial.
(§7) During the period, the administration of a double-blind and double-dummy trial medications was guided by an interactive voice-response system which was a procedure to prevent unblinding for the patients whose dose was not adjusted. After completing dose adjustment, the urate level was concealed from the investigators, and the treatment was managed throughout the trial using the interactive voice-response system.
(§8) Outpatient visits were conducted according to the following schedule: during screening and randomization, and at 2, 4, 6, 8, 10, 12, and 24 weeks after the randomization, and every 6 months during the subsequent years of the trial. The patients with reduced kidney function or, the patients aged 65 years or older at randomization were visited at 9 and 15 months for monitoring the serum chemical profile. If the patient agreed to be monitored, but would not return for study visit, telephone contact was made, but such method was not preferred or recommended.
In order to confirm the effect of allopurinol and febuxostat on the kidney disease, the data obtained in the clinical trial described above was analyzed.

[2] = system: patients with gout and a history of major cardiovascular diseases; test: clinical trial febuxostat vs allopurinol: serum uric acid, gout flare, treatment discontinuation; type: in vivo, human
Experimental: as §1, §2, §3, §4, §5, §6, §7, §8

Cc1nc(-c2ccc(OCC(C)C)c(C#N)c2)sc1C(=O)O [febuxostat]
eGFR Mean (95% CI) ([1]; DBP <80, Average UA <6, Month 12): 63.06 (61.79-64.33) ml/min/1.73 m^2 | eGFR Mean (95% CI) ([1]; DBP <80, Average UA <6, Month 18): 63.11 (61.75-64.47) ml/min/1.73 m^2 | eGFR Mean (95% CI) ([1]; DBP <80, Average UA <6, Month 24): 63.79 (62.31-65.27) ml/min/1.73 m^2 | eGFR Mean (95% CI) ([1]; DBP <80, Average UA <6, Month 30): 63.51 (61.89-65.13) ml/min/1.73 m^2 | eGFR Mean (95% CI) ([1]; DBP <80, Average UA <6, Month 36): 64.28 (62.56-66.00) ml/min/1.73 m^2 | eGFR Mean (95% CI) ([1]; DBP <80, Average UA <6, Month 42): 64.43 (62.50-66.35) ml/min/1.73 m^2 | eGFR Mean (95% CI) ([1]; DBP <80, Average UA <6, Month 48): 65.60 (63.48-67.72) ml/min/1.73 m^2 | eGFR Mean (95% CI) ([1]; DBP <80, Average UA <6, Month 54): 65.70 (63.39-68.00) ml/min/1.73 m^2 | eGFR Mean (95% CI) ([1]; DBP <80, Average UA <6, Month 60): 66.92 (64.25-69.59) ml/min/1.73 m^2 | eGFR Mean (95% CI) ([1]; DBP <80, Average UA <6, Week 2): 62.06 (60.81-63.31) ml/min/1.73 m^2 | eGFR Mean (95% CI) ([1]; DBP <80, Average UA ≥6, Baseline): 62.08 (59.70-64.45) ml/min/1.73 m^2 | eGFR Mean (95% CI) ([1]; DBP <80, Average UA ≥6, Month 3): 61.44 (58.99-63.89) ml/min/1.73 m^2 | eGFR Mean (95% CI) ([1]; DBP <80, Average UA ≥6, Month 6): 61.49 (59.02-63.95) ml/min/1.73 m^2 | eGFR Mean (95% CI) ([1]; DBP <80, Average UA ≥6, Month 12): 60.74 (58.06-63.41) ml/min/1.73 m^2 | eGFR Mean (95% CI) ([1]; DBP <80, Average UA ≥6, Month 18): 60.18 (57.20-63.15) ml/min/1.73 m^2 | eGFR Mean (95% CI) ([1]; DBP <80, Average UA ≥6, Month 24): 60.32 (57.11-63.53) ml/min/1.73 m^2 | eGFR Mean (95% CI) ([1]; DBP <80, Average UA ≥6, Month 30): 59.54 (55.89-63.19) ml/min/1.73 m^2 | eGFR Mean (95% CI) ([1]; DBP <80, Average UA ≥6, Month 36): 60.26 (56.16-64.37) ml/min/1.73 m^2 | eGFR Mean (95% CI) ([1]; DBP <80, Average UA ≥6, Month 42): 59.55 (55.09-64.02) ml/min/1.73 m^2 | eGFR Mean (95% CI) ([1]; DBP <80, Average UA ≥6, Month 48): 59.84 (55.23-64.46) ml/min/1.73 m^2 | eGFR Mean (95% CI) ([1]; DBP <80, Average UA ≥6, Month 54): 60.35 (55.08-65.62) ml/min/1.73 m^2 | eGFR Mean (95% CI) ([1]; DBP <80, Average UA ≥6, Month 60): 60.01 (53.34-66.68) ml/min/1.73 m^2 | eGFR Mean (95% CI) ([1]; DBP <80, Average UA ≥6, Week 2): 62.00 (59.39-64.62) ml/min/1.73 m^2 | eGFR Mean (95% CI) ([1]; SBP <130, Average UA <6, Baseline): 64.76 (63.32-66.20) ml/min/1.73 m^2 | eGFR Mean (95% CI) ([1]; SBP <130, Average UA <6, Month 3): 64.67 (63.21-66.12) ml/min/1.73 m^2 | eGFR Mean (95% CI) ([1]; SBP <130, Average UA <6, Month 6): 64.87 (63.38-66.36) ml/min/1.73 m^2 | eGFR Mean (95% CI) ([1]; SBP <130, Average UA <6, Month 12): 66.06 (64.55-67.57) ml/min/1.73 m^2 | eGFR Mean (95% CI) ([1]; SBP <130, Average UA <6, Month 18): 66.18 (64.56-67.79) ml/min/1.73 m^2 | eGFR Mean (95% CI) ([1]; SBP <130, Average UA <6, Month 24): 66.12 (64.42-67.83) ml/min/1.73 m^2 | eGFR Mean (95% CI) ([1]; SBP <130, Average UA <6, Month 30): 66.59 (64.74-68.44) ml/min/1.73 m^2 | eGFR Mean (95% CI) ([1]; SBP <130, Average UA <6, Month 36): 67.47 (65.55-69.39) ml/min/1.73 m^2 | eGFR Mean (95% CI) ([1]; SBP <130, Average UA <6, Month 42): 66.93 (64.77-69.08) ml/min/1.73 m^2 | eGFR Mean (95% CI) ([1]; SBP <130, Average UA <6, Month 48): 68.21 (65.88-70.54) ml/min/1.73 m^2 | eGFR Mean (95% CI) ([1]; SBP <130, Average UA <6, Month 54): 68.62 (66.03-71.22) ml/min/1.73 m^2 | eGFR Mean (95% CI) ([1]; SBP <130, Average UA <6, Month 60): 69.36 (66.42-72.30) ml/min/1.73 m^2 | eGFR Mean (95% CI) ([1]; SBP <130, Average UA <6, Week 2): 65.16 (63.69-66.63) ml/min/1.73 m^2 | eGFR Mean (95% CI) ([1]; SBP <130, Average UA ≥6, Baseline): 65.83 (63.23-68.44) ml/min/1.73 m^2 | eGFR Mean (95% CI) ([1]; SBP <130, Average UA ≥6, Month 3): 65.54 (62.88-68.20) ml/min/1.73 m^2 | eGFR Mean (95% CI) ([1]; SBP <130, Average UA ≥6, Month 6): 65.87 (63.30-68.43) ml/min/1.73 m^2 | eGFR Mean (95% CI) ([1]; SBP <130, Average UA ≥6, Month 12): 65.19 (62.39-67.99) ml/min/1.73 m^2 | eGFR Mean (95% CI) ([1]; SBP <130, Average UA ≥6, Month 18): 63.60 (60.49-66.71) ml/min/1.73 m^2 | eGFR Mean (95% CI) ([1]; SBP <130, Average UA ≥6, Month 24): 62.90 (59.50-66.30) ml/min/1.73 m^2 | eGFR Mean (95% CI) ([1]; SBP <130, Average UA ≥6, Month 30): 62.62 (58.76-66.48) ml/min/1.73 m^2 | eGFR Mean (95% CI) ([1]; SBP <130, Average UA ≥6, Month 36): 65.24 (60.84-69.64) ml/min/1.73 m^2 | eGFR Mean (95% CI) ([1]; SBP <130, Average UA ≥6, Month 42): 65.47 (60.56-70.39) ml/min/1.73 m^2 | eGFR Mean (95% CI) ([1]; SBP <130, Average UA ≥6, Month 48): 64.82 (59.40-70.23) ml/min/1.73 m^2 | eGFR Mean (95% CI) ([1]; SBP <130, Average UA ≥6, Month 54): 65.92 (59.74-72.11) ml/min/1.73 m^2 | eGFR Mean (95% CI) ([1]; SBP <130, Average UA ≥6, Month 60): 64.71 (57.42-72.01) ml/min/1.73 m^2 | eGFR Mean (95% CI) ([1]; SBP <130, Average UA ≥6, Week 2): 65.59 (62.82-68.36) ml/min/1.73 m^2 | proportion of patients with maintenance of serum uric acid concentration at less than 6.0 mg per deciliter ([2]; after 2nd week, at most times, febuxostat group vs allopurinol group): a higher proportion of the patients in the febuxostat group | proportion of patients with serum uric acid concentration of less than 6.0 mg per deciliter ([2]; at the 2nd week, febuxostat group vs allopurinol group): higher in the febuxostat group than in the allopurinol group | proportion of patients with serum uric acid concentration of less than 5.0 mg per deciliter ([2]; entire trial, febuxostat group vs allopurinol group): a larger proportion of the patients in the febuxostat group than in the allopurinol group | rate of gout flare ([2]; overall, during the trial): 0.68 per patient-year

— patent US20250152592A1, “PHARMACEUTICAL COMPOSITION COMPRISING ALLOPURINOL, FEBUXOSTAT OR PHARMACEUTICALLY ACCEPTABLE SALT THEREOF FOR PREVENTION OR TREATMENT OF CHRONIC KIDNEY DISEASE IN SUBJECT HAVING HIGH SERUM URIC ACID CONCENTRATION” (Indream Healthcare Inc., priority 2022, published 2025)
